{
  "source": "ChEMBL document CHEMBL5316350",
  "about": "“Novel Pyrido[2',1':2,3]imidazo[4,5-c]quinoline Derivative Selectively Poisons Leishmania donovani Bisubunit Topoisomerase 1 to Inhibit the Antimony-Resistant Leishmania Infection in Vivo” (J Med Chem, 2023)",
  "key": {"[1]": {"system": "Leishmania donovani", "assay": "Induction of cell cycle arrest in Leishmania donovani Ag83 promastigotes assessed as decrease in accumulation of cells in S phase at 5 uM measured after 6 hrs by PI staining based flow cytometry (reference value: 18.1%)", "type": "functional", "design": "scale not given: the % may be the effect or the level left"}, "[2]": {"target": "T1, DNA topoisomerase I (Leishmania donovani (strain BPK282A1), UniProt E9BRC0)", "T1 sequence (E9BRC0 whole entry)": "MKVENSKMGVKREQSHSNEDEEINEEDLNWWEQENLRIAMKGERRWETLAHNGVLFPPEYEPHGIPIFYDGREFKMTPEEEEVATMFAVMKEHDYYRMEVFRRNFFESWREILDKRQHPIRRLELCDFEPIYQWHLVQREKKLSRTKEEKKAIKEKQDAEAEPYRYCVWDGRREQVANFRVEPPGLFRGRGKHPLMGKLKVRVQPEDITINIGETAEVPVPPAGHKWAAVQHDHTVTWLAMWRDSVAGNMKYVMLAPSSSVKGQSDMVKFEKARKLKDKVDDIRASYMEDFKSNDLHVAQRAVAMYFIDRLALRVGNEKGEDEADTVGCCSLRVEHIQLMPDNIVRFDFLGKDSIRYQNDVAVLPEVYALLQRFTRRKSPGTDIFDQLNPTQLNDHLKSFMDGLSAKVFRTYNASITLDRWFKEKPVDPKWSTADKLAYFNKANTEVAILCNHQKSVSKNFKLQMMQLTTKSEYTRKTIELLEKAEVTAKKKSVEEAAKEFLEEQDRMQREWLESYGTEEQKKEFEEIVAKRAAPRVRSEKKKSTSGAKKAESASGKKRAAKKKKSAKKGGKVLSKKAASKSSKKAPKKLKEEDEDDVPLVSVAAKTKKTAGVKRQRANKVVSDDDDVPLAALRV", "assay": "Inhibition of recombinant Top1 in Leishmania donovani Ag83 whole cell extract assessed as relaxation of supercoiled pBluescript SK(+) DNA measured by agarose gel electrophoresis analysis"}, "[3]": {"target": "T2, DNA topoisomerase I (Leishmania donovani (strain BPK282A1)) (UniProt E9BRC0)", "T2 sequence (whole entry)": "T1 sequence (E9BRC0 whole entry)", "assay": "Inhibition of recombinant Top1 in Leishmania donovani Ag83 whole cell extract assessed as relaxation of supercoiled pBluescript SK(+) DNA at 10 uM incubated for 30 mins by agarose gel electrophoresis analysis relative to control"}, "[4]": {"target": "T2, DNA topoisomerase I (Leishmania donovani (strain BPK282A1))", "assay": "Inhibition of Leishmania donovani recombinant Top1 preincubated with compound for 5 mins followed by plasmid DNA addition at 1 to 10 uM measured after 30 mins", "details": "dose 1-10 µM"}, "[5]": {"target": "T2, DNA topoisomerase I (Leishmania donovani (strain BPK282A1))", "assay": "Inhibition of recombinant Top1 in Leishmania donovani Ag83 whole cell extract preincubated with compound for 5 mins followed by plasmid DNA addition at 5 to 20 uM measured after 30 mins", "details": "dose 5-20 µM"}, "[6]": {"target": "T3, DNA topoisomerase 1 (Homo sapiens) (UniProt P11387)", "T3 sequence (whole entry)": "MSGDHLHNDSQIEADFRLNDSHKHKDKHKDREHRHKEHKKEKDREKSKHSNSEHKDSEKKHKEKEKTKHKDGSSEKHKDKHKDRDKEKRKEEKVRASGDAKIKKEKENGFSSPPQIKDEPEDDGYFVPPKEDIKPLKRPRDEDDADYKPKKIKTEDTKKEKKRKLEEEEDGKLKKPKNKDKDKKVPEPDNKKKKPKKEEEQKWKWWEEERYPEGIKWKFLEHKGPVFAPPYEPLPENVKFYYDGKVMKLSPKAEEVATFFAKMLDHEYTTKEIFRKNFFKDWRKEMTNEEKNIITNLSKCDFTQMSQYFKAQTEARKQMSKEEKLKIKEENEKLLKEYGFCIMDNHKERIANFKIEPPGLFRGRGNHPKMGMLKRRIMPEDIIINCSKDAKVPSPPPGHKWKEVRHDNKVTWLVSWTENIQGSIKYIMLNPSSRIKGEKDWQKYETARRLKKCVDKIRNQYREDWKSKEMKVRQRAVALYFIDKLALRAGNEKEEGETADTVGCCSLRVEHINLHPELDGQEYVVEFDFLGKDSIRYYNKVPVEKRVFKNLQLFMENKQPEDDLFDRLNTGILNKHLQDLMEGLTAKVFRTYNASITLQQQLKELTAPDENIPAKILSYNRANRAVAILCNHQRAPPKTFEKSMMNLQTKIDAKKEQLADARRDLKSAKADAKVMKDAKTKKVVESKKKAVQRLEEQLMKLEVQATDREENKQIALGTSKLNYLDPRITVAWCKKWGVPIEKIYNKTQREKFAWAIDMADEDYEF", "assay": "Inhibition of human recombinant Top1 infected in Sf9 cells assessed as plasmid DNA relaxation upto 100 uM measured after 30 mins"}, "[7]": {"system": "Leishmania donovani", "assay": "Induction of apoptosis in Leishmania donovani Ag83 promastigotes assessed as DNA break accumulation measured at 5 uM after 24 hrs by TUNEL staining based assay", "type": "functional, organism-based"}, "[8]": {"system": "Leishmania donovani", "assay": "Induction of apoptosis in Leishmania donovani Ag83 promastigotes assessed as late apoptotic cells measured at 5 uM after 12 hrs by Annexin V-FITC/PI staining based flow cytometric analysis (reference value: 0.1%)", "type": "functional"}, "[9]": {"system": "Leishmania donovani", "assay": "Induction of apoptosis in Leishmania donovani Ag83 promastigotes assessed as necrotic cells measured at 5 uM after 12 hrs by Annexin V-FITC/PI staining based flow cytometric analysis", "type": "functional, organism-based"}, "[10]": {"system": "Leishmania donovani", "assay": "Reversal of Top1cc-induced DNA breakdown in Leishmania donovani Ag83 promastigotes by measuring TUNEL positive cells treated for 6 to 12 hrs followed by compound removal measured after 6 to 12 hrs by confocal microscopic analysis relative to camptothecin", "type": "functional, organism-based", "details": "time 6-12 hrs"}, "[11]": {"system": "Leishmania donovani", "assay": "Induction of apoptosis in Leishmania donovani BHU575 promastigotes assessed as DNA break accumulation measured at 5 uM after 6 to 24 hrs by TUNEL staining based assay", "type": "functional, organism-based", "details": "time 6-24 hrs"}, "[12]": {"system": "Leishmania donovani", "assay": "Induction of cell cycle arrest in antimony resistant Leishmania donovani BHU575 promastigotes assessed as decrease in accumulation of cells in G0/G1 phase at 5 uM measured after 12 hrs by PI staining based flow cytometry (reference value: 80.7%)", "type": "functional", "design": "scale not given: the % may be the effect or the level left"}, "[13]": {"system": "Leishmania donovani", "assay": "Induction of cell cycle arrest in antimony resistant Leishmania donovani BHU575 promastigotes assessed as decrease in accumulation of cells in G2/M phase at 5 uM measured after 12 hrs by PI staining based flow cytometry (reference value: 8.8%)", "type": "functional", "design": "scale not given: the % may be the effect or the level left"}, "[14]": {"system": "Leishmania donovani", "assay": "Induction of apoptosis in antimony resistant Leishmania donovani BHU575 promastigotes at 5 uM measured after 6 to 24 hrs by FITC-Annexin V-based flow cytometric analysis", "type": "functional, organism-based", "details": "time 6-24 hrs"}, "[15]": {"system": "Leishmania donovani", "assay": "Antileishmanial activity against antimony resistant Leishmania donovani BHU575 promastigotes infected in BALB/c mouse assessed as reduction of macrophage at 10 uM measured after 96 hrs infection by propidium iodide staining analysis relative to control", "type": "functional", "design": "scale not given: the % may be the effect or the level left"}, "[16]": {"assay": "Selectivity index ratio of EC50 for BALB/c mouse macrophage to ratio of EC50 for antileishmanial activity against Leishmania amastigotes", "type": "toxicity", "details": "mouse macrophages, read-out: Ratio EC50"}, "[17]": {"assay": "Toxicity in BALB/c mouse infected with Leishmania donovani Ag83 promastigotes assessed as change in body weight treated after 3 weeks of infection at 5 to 10 mg/kg, ip twice a week for 3 weeks", "type": "organism-based", "details": "in vivo, dose 5-10 mg/kg"}, "[18]": {"system": "Leishmania donovani", "assay": "Antileishmanial activity against antimony resistant Leishmania donovani BHU575 promastigotes infected in BALB/c mouse assessed as reduction of amastigote burden by measuring parasite count in blood treated after 3 weeks of infection at 5 to 10 mg/kg, ip twice a week for 3 weeks by qPCR based kineto-plastid DNA", "type": "functional, organism-based", "details": "dose 5-10 mg/kg"}},
  "note": "Active and inactive are the calls of the source. No cut-off for these calls is given here.",
  "data": [
    {"molecule": "COc1cc(-c2nc3ccccc3c3nc4ccccn4c23)cc(OC)c1OC", "values": [
      {"measurement": "Activity", "setting": "[1]", "result": 13.6, "unit": "%"},
      {"measurement": "IC50", "setting": "[2]", "result": 6.5, "unit": "µM"},
      {"measurement": "inhibition", "setting": "[3]", "result": 85, "unit": "%"},
      {"measurement": "inhibition", "setting": "[4]", "result": "inactive"},
      {"measurement": "inhibition", "setting": "[5]", "result": "inactive"},
      {"measurement": "inhibition", "setting": "[6]", "result": "inactive"},
      {"measurement": "Activity", "setting": "[7]", "result": "Active"},
      {"measurement": "Activity", "setting": "[8]", "result": 61, "unit": "%"},
      {"measurement": "Activity", "setting": "[9]", "result": "Active"},
      {"measurement": "Activity", "setting": "[10]", "result": "inactive"},
      {"measurement": "Activity", "setting": "[11]", "result": "Active"},
      {"measurement": "Activity", "setting": "[12]", "result": 46, "unit": "%"},
      {"measurement": "Activity", "setting": "[13]", "result": 27.5, "unit": "%"},
      {"measurement": "Activity", "setting": "[14]", "result": "Active"},
      {"measurement": "Activity", "setting": "[15]", "result": 90, "unit": "%"},
      {"measurement": "selectivity ratio", "setting": "[16]", "result": 9.25},
      {"measurement": "Activity", "setting": "[17]", "result": "Non-Toxic"},
      {"measurement": "Activity", "setting": "[18]", "result": "Active"}
    ]}
  ]
}
